Results on nine molecules are retold here after PubChem BioAssay (NCI).

Holding throughout (test): DTP human tumour cell line panel, 48 h
Experiment [1] concerns A498 renal.
The test system of experiment [2] is COLO 205 colon.
The subject of experiment [3] is HOP-62 NSCLC.
Experiment [4] concerns HS 578T breast.
The subject of experiment [5] is K-562 leukemia.
For experiment [6], the system named is MCF7 breast.
Experiment [7] relates to MDA-MB-435.
Experiment [8] has as its system MOLT-4 leukemia.
In experiment [9] the test system is OVCAR-8 ovarian.
The subject of experiment [10] is PC-3 prostate.
The test system of experiment [11] is SF-268 CNS.
The test system of experiment [12] is SK-MEL-5 melanoma.
In experiment [13] the test system is SK-OV-3 ovarian.
Experiment [14] relates to SNB-75 CNS.
Experiment [15] has as its system SR leukemia.
Experiment [16] deals with UACC-62 melanoma.
The test system of experiment [17] is NCI-H226 lung.

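In this assay, cells in 96-well plates receive the compound at five concentrations for 48 hours. Endpoints are linearly interpolated between the surrounding concentrations. Definition used: TGI = concentration required for complete inhibition of growth.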

Turning to `O=C1O/C(=C\c2ccc(O)c(Br)c2)C(c2ccc(O)cc2)=C1Cl`, the total growth inhibition concentration (TGI) (commonly the concentration giving total growth inhibition) in experiment [1] was 77.7 µM; in [2] it was more than 100 µM; in experiment [3] it was more than 100 µM; in experiment [4], more than 100 µM; in experiment [5], more than 100 µM; in experiment [6], 49.5 µM. The TGI in [7] is more than 100 µM; in [8], more than 100 µM; in [9], more than 100 µM; in [10], more than 100 µM; in experiment [11], 86.2 µM; in [12], 53.5 µM. For the same molecule, the TGI in [13], in experiment [14], in experiment [15] and in [16] was more than 100 µM each time.

Regarding `C=CCNC1=C2C[C@@H](C)C[C@@H](OC)[C@H](OC(=O)CN(C)C)[C@H](C)/C=C(\C)[C@@H](OC(N)=O)[C@H](OC)/C=C\C=C(/C)C(=O)NC(=CC1=O)C2=O`, the TGI in [1] was 19.4 µM; in experiment [2], 1.64 µM; in experiment [3] it was 17.6 µM; in experiment [4], 47.7 µM; in experiment [5] it was more than 42.1 µM; in experiment [6] it was 14.3 µM. The TGI was 13.7 µM in [7]; more than 41.6 µM in experiment [8]; 63.1 µM in experiment [9]; 16.6 µM in [10]; 30.5 µM in [11]; 14.6 µM in experiment [12]. For the same molecule, the TGI was 20 µM in experiment [13], 0.909 µM in [14], more than 32 µM in experiment [15] and 11.6 µM in [16].

On to `CN(CCc1ccc(Br)cc1)CCN1CCCCC1`, for which the TGI in experiment [1] was 63.2 µM; in [2], 32.4 µM; in experiment [3] it was more than 100 µM; in experiment [4], 52.6 µM; in experiment [5], 41.5 µM; in experiment [6], 54.4 µM. The TGI in [7] was 95.3 µM; in experiment [8], more than 100 µM; in experiment [17] it was more than 100 µM; in experiment [9] it was more than 100 µM; in [10], more than 100 µM; in experiment [11] it was more than 100 µM. Moreover, the total growth inhibition concentration (TGI) in [12] is 28.2 µM; in experiment [13], more than 100 µM; in [14], 85.4 µM.

Regarding `CC1=C(C)SC(=C2Sc3c(n(C)c(=O)[nH]c3=O)S2)S1`, the TGI in experiment [1], in [2], in experiment [3], in experiment [4], in experiment [5] and in experiment [6] was more than 100 µM each time. In addition, the concentration for total growth inhibition (TGI) in experiment [7], in experiment [8], in experiment [17], in experiment [9], in [10] and in [11] was more than 100 µM throughout. Further, the TGI in experiment [12], in experiment [13], in [14] and in experiment [16] was more than 100 µM throughout.

For the molecule `CCCCCCCCCCCCCCCCOP(=O)(O)OP(=O)(O)OCC1OC(n2ccc(N)nc2=O)CC1O` (configuration not stated), the TGI in experiment [1], in [2], in experiment [3], in experiment [4], in [5] and in [6] was more than 100 µM in each case. Further, the total growth inhibition concentration (TGI) in experiment [7], in [8], in experiment [17], in [9], in [10] and in [11] was more than 100 µM in each case. Also, the TGI in [12], in experiment [13], in [14] and in [16] was more than 100 µM in each case.

Regarding `COC(=O)c1cc(NC2OCC(OC(C)=O)C(OC(C)=O)C2OC(C)=O)nc(SC)c1C(=O)OC` (configuration not stated), the TGI in experiment [2], in experiment [3], in experiment [4], in experiment [6], in [7] and in experiment [8] was more than 100 µM each time. The TGI in [9], in [10], in experiment [11], in experiment [12], in [14] and in experiment [15] was more than 100 µM in each case. Besides, the TGI in experiment [16] is more than 100 µM.

With `COC(=O)/C=C\c1ccc2c(c1)CC1(C2)Cc2ccc(/C=C/C(=O)OC)cc2C1` (configuration not stated), the TGI is more than 31.6 µM in [2]; 25.3 µM in [3]; more than 31.6 µM in experiment [4]; more than 31.6 µM in [5]; more than 31.6 µM in experiment [6]; more than 31.6 µM in [7]. Also, the TGI is more than 31.6 µM in experiment [8]; more than 31.6 µM in experiment [17]; more than 31.6 µM in [9]; more than 31.6 µM in experiment [10]; more than 100 µM in experiment [11]; more than 31.6 µM in experiment [12]. The TGI in [13] is more than 31.6 µM; in experiment [14] it was more than 100 µM; in [15] it was more than 31.6 µM; in [16] it was more than 31.6 µM.

Consider `Cc1cc(S(=O)(=O)Nc2nc(N)n(-c3cnc4ccccc4n3)n2)c(S)cc1Cl`, for which the TGI in experiment [1], in experiment [2], in experiment [3], in experiment [4], in [5] and in [6] was more than 100 µM throughout. Further, the TGI in experiment [7], in experiment [17], in [9], in experiment [10], in [11] and in experiment [12] was more than 100 µM throughout. Also, the TGI in [13], in experiment [14] and in [16] was more than 100 µM throughout.

For the molecule `O=C1CN(c2cccc(C(F)(F)F)c2)C(=O)CN1NCNN1CC(=O)N(c2cccc(C(F)(F)F)c2)CC1=O`, the concentration for total growth inhibition (TGI) in [2], in [3], in [4], in [5], in [6] and in experiment [7] was more than 100 µM throughout. The concentration for total growth inhibition (TGI) in experiment [8], in experiment [9], in experiment [10], in experiment [11], in experiment [12] and in experiment [13] was more than 100 µM each time. Besides, the TGI in experiment [14] and in [15] was more than 100 µM in each case.
